PubChem BioAssay AID1918941 (Molecular Pharmacology Branch, DTP, NCI, 2023)
Several values for one entry are separate records, joined by “and”; a condition that tells them apart may be missing. Identical values can stand only once.

Test system: SW 1271 complex spheroids, viability
Experiment: Anticancer human tumor SW 1271 cell line growth inhibition [LSD1];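 further: spheroids exposed to agents for 7 days before luminescence read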;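 on viability, T/C: 100% = DMSO vehicle control viability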
Settings: for viability, T/C: stronger effect = lower value
Outline: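 Multicellular complex spheroids of tumor cells with human endothelial cells (HUVEC) and mesenchymal stem cells; the LSD1 inhibitor iadademstat was combined with standard-of-care or investigational agents. Top concentration at or near clinical Cmax, half-log dilutions; final DMSO ≤0.25%.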

[1] = curve of first compound, second compound 0.1 µM
[2] = curve of first compound, second compound 0.316 µM
[3] = curve of first compound, second compound 1 µM
[4] = curve of first compound, second compound 3.16 µM
[5] = curve of first compound, second compound 10 µM
[6] = second compound 0.1 µM, first compound 0.0316 µM
[7] = second compound 0.1 µM, first compound 0.1 µM
[8] = second compound 0.316 µM, first compound 0.0316 µM
[9] = second compound 0.316 µM, first compound 0.1 µM
[10] = second compound 1 µM, first compound 0.0316 µM
[11] = second compound 1 µM, first compound 0.1 µM
[12] = second compound 3.16 µM, first compound 0.0316 µM
[13] = second compound 3.16 µM, first compound 0.1 µM
[14] = second compound 10 µM, first compound 0.0316 µM
[15] = second compound 10 µM, first compound 0.1 µM
[16] = second compound 0.1 µM, first compound 0.000316 µM
[17] = second compound 0.1 µM, first compound 0.001 µM
[18] = second compound 0.1 µM, first compound 0.00316 µM
[19] = second compound 0.1 µM, first compound 0.01 µM
[20] = second compound 0.316 µM, first compound 0.000316 µM
[21] = second compound 0.316 µM, first compound 0.001 µM
[22] = second compound 0.316 µM, first compound 0.00316 µM
[23] = second compound 0.316 µM, first compound 0.01 µM
[24] = second compound 1 µM, first compound 0.000316 µM
[25] = second compound 1 µM, first compound 0.001 µM
[26] = second compound 1 µM, first compound 0.00316 µM
[27] = second compound 1 µM, first compound 0.01 µM
[28] = second compound 3.16 µM, first compound 0.000316 µM
[29] = second compound 3.16 µM, first compound 0.001 µM
[30] = second compound 3.16 µM, first compound 0.00316 µM
[31] = second compound 3.16 µM, first compound 0.01 µM
[32] = second compound 10 µM, first compound 0.000316 µM
[33] = second compound 10 µM, first compound 0.001 µM
[34] = second compound 10 µM, first compound 0.00316 µM
[35] = second compound 10 µM, first compound 0.01 µM

Compound `Nc1ccccc1NC(=O)c1ccc(CNC(=O)OCc2cccnc2)cc1` + NC1CC1c1ccc(-c2cccc(O)c2)cc1 has an IC50 [1] of 106 nM, an IC50 [2] of 120 nM and an IC50 [3] of 62.6 nM. The IC50 [4] was 76.2 nM, the IC50 [5] was 38.1 nM and the viability, T/C (second compound 0.1 µM, first compound 0.00949 µM) was 85.6%. For the same compound, the viability, T/C (second compound 0.1 µM, first compound 0.03 µM) was 65.7%, the viability, T/C (second compound 0.1 µM, first compound 0.0949 µM) was 56.7% and the viability, T/C (second compound 0.1 µM, first compound 0.3 µM) was 29.6%. For the same compound, the viability, T/C (second compound 0.1 µM, first compound 0.949 µM) was 8.17%, the viability, T/C (second compound 0.1 µM, first compound 3 µM) was 3.78% and the viability, T/C (second compound 0.316 µM, first compound 0.00949 µM) was 89.2%. The viability, T/C (second compound 0.316 µM, first compound 0.03 µM) was 75.3%, the viability, T/C (second compound 0.316 µM, first compound 0.0949 µM) was 57.3% and the viability, T/C (second compound 0.316 µM, first compound 0.3 µM) was 27.7%. It also gave a viability, T/C (second compound 0.316 µM, first compound 0.949 µM) of 6.71%, a viability, T/C (second compound 0.316 µM, first compound 3 µM) of 4.39% and a viability, T/C (second compound 1 µM, first compound 0.00949 µM) of 94.3%. The viability, T/C (second compound 1 µM, first compound 0.03 µM) was 59.9%, the viability, T/C (second compound 1 µM, first compound 0.0949 µM) was 46.6% and the viability, T/C (second compound 1 µM, first compound 0.3 µM) was 26.6%. The viability, T/C (second compound 1 µM, first compound 0.949 µM) was 7.28%, the viability, T/C (second compound 1 µM, first compound 3 µM) was 5.61% and the viability, T/C (second compound 3.16 µM, first compound 0.00949 µM) was 81.3%. The viability, T/C (second compound 3.16 µM, first compound 0.03 µM) was 69.7%, the viability, T/C (second compound 3.16 µM, first compound 0.0949 µM) was 40.5% and the viability, T/C (second compound 3.16 µM, first compound 0.3 µM) was 32.4%. The viability, T/C (second compound 3.16 µM, first compound 0.949 µM) was 10%, the viability, T/C (second compound 3.16 µM, first compound 3 µM) was 4.69% and the viability, T/C (second compound 10 µM, first compound 0.00949 µM) was 66.7%. It also gave a viability, T/C (second compound 10 µM, first compound 0.03 µM) of 51.9%, a viability, T/C (second compound 10 µM, first compound 0.0949 µM) of 38.6% and a viability, T/C (second compound 10 µM, first compound 0.3 µM) of 29.4%. It also gave a viability, T/C (second compound 10 µM, first compound 0.949 µM) of 11.7% and a viability, T/C (second compound 10 µM, first compound 3 µM) of 6.45%.
In the case of `O=C(c1cc(Cc2n[nH]c(=O)c3ccccc23)ccc1F)N1CCN(C(=O)C2CC2)CC1` + NC1CCC(NC2CC2c2ccccc2)CC1, the IC50 [1] is reported as > 10000 nM, the IC50 [2] is reported as > 10000 nM and the IC50 [3] is reported as > 10000 nM. The IC50 [4] was > 10000 nM, the IC50 [5] was > 10000 nM and the viability, T/C [6] was 82%. It also gave a viability, T/C [7] of 104%, a viability, T/C (second compound 0.1 µM, first compound 0.316 µM) of 95.3% and a viability, T/C (second compound 0.1 µM, first compound 1 µM) of 86.2%. For the same compound, the viability, T/C (second compound 0.1 µM, first compound 3.16 µM) was 82.6%, the viability, T/C (second compound 0.1 µM, first compound 10 µM) was 71.2% and the viability, T/C [8] was 85.7%. For the same compound, the viability, T/C [9] was 91.9%, the viability, T/C (second compound 0.316 µM, first compound 0.316 µM) was 97.3% and the viability, T/C (second compound 0.316 µM, first compound 1 µM) was 87.7%. The viability, T/C (second compound 0.316 µM, first compound 3.16 µM) was 81.9%, the viability, T/C (second compound 0.316 µM, first compound 10 µM) was 63.8% and the viability, T/C [10] was 82.7%. The viability, T/C [11] was 105%, the viability, T/C (second compound 1 µM, first compound 0.316 µM) was 91.5% and the viability, T/C (second compound 1 µM, first compound 1 µM) was 96.6%. It also gave a viability, T/C (second compound 1 µM, first compound 3.16 µM) of 79.8%, a viability, T/C (second compound 1 µM, first compound 10 µM) of 71.9% and a viability, T/C [12] of 81.6%. For the same compound, the viability, T/C [13] was 94.7%, the viability, T/C (second compound 3.16 µM, first compound 0.316 µM) was 101% and the viability, T/C (second compound 3.16 µM, first compound 1 µM) was 83.4%. For the same compound, the viability, T/C (second compound 3.16 µM, first compound 3.16 µM) was 84%, the viability, T/C (second compound 3.16 µM, first compound 10 µM) was 76.6% and the viability, T/C [14] was 93.8%. The viability, T/C [15] was 95.9%, the viability, T/C (second compound 10 µM, first compound 0.316 µM) was 94.5% and the viability, T/C (second compound 10 µM, first compound 1 µM) was 84.2%. It also gave a viability, T/C (second compound 10 µM, first compound 3.16 µM) of 78.1% and a viability, T/C (second compound 10 µM, first compound 10 µM) of 66.9%.
`CC(C)CC(NC(=O)CNC(=O)c1cc(Cl)ccc1Cl)B1OC(=O)CC(CC(=O)O)(C(=O)O)O1` (stereo unspecified) + NC1CCC(NC2CC2c2ccccc2)CC1 showed an IC50 [1] of 4.95 nM, an IC50 [2] of 4.94 nM and an IC50 [3] of 5.09 nM. The IC50 [4] was 5.19 nM, the IC50 [5] was 5.23 nM and the viability, T/C [16] was 93.8%. The viability, T/C [17] was 88.8%, the viability, T/C [18] was 78.4% and the viability, T/C [19] was 5.55%. For the same compound, the viability, T/C [6] was 0.31%, the viability, T/C [7] was 0.44% and the viability, T/C [20] was 92.7%. It also gave a viability, T/C [21] of 90%, a viability, T/C [22] of 78.1% and a viability, T/C [23] of 5.75%. For the same compound, the viability, T/C [8] was 0.88%, the viability, T/C [9] was 0.13% and the viability, T/C [24] was 78.5%. For the same compound, the viability, T/C [25] was 80.4%, the viability, T/C [26] was 83.8% and the viability, T/C [27] was 6.04%. The viability, T/C [10] was 0.34%, the viability, T/C [11] was 0.23% and the viability, T/C [28] was 93.7%. It also gave a viability, T/C [29] of 93.9%, a viability, T/C [30] of 81.4% and a viability, T/C [31] of 8.6%. It also gave a viability, T/C [12] of 0.51%, a viability, T/C [13] of 0.36% and a viability, T/C [32] of 85.3%. It also gave a viability, T/C [33] of 79.2%, a viability, T/C [34] of 86.2% and a viability, T/C [35] of 6.72%. For the same compound, the viability, T/C [14] was 0.65% and the viability, T/C [15] was 0.38%.
With `CCc1c2c(nc3ccc(O)cc13)-c1cc3c(c(=O)n1C2)COC(=O)[C@]3(O)CC` the viability, T/C (compound 0.000949 µM) was 57.8% and 46.7%, the viability, T/C (compound 0.003 µM) was 55.8% and 41.6% and the viability, T/C (compound 0.00949 µM) was 23.3% and 28.8%. The viability, T/C (compound 0.03 µM) was 7.65% and 6.53%, the viability, T/C (compound 0.0949 µM) was 6.15% and 5.62% and the viability, T/C (compound 0.3 µM) was 3.93% and 13.3%. For the same compound, the IC50 (curve of compound) was 3.64 nM and < 0.949 nM.
With `Cn1ncnc1C1c2n[nH]c(=O)c3cc(F)cc(c23)NC1c1ccc(F)cc1` (stereo unspecified) + NC1CC1c1ccc(-c2cccc(O)c2)cc1 the IC50 [1] was > 100 nM, the IC50 [2] was > 100 nM and the IC50 [3] was > 100 nM. The IC50 [4] was > 100 nM, the IC50 [5] was 65.5 nM and the viability, T/C [16] was 97.8%. For the same compound, the viability, T/C [17] was 80.9%, the viability, T/C [18] was 72.3% and the viability, T/C [19] was 85.8%. The viability, T/C [6] was 71.3%, the viability, T/C [7] was 66.7% and the viability, T/C [20] was 77.6%. It also gave a viability, T/C [21] of 72.6%, a viability, T/C [22] of 67.5% and a viability, T/C [23] of 68.9%. It also gave a viability, T/C [8] of 71%, a viability, T/C [9] of 77% and a viability, T/C [24] of 78.1%. For the same compound, the viability, T/C [25] was 75.7%, the viability, T/C [26] was 72.8% and the viability, T/C [27] was 67.5%. It also gave a viability, T/C [10] of 66.1%, a viability, T/C [11] of 82.7% and a viability, T/C [28] of 75.8%. For the same compound, the viability, T/C [29] was 85.5%, the viability, T/C [30] was 78.9% and the viability, T/C [31] was 57.3%. It also gave a viability, T/C [12] of 59.2%, a viability, T/C [13] of 57.9% and a viability, T/C [32] of 64.7%. For the same compound, the viability, T/C [33] was 66.7%, the viability, T/C [34] was 67.2% and the viability, T/C [35] was 61.3%. The viability, T/C [14] was 48.6% and the viability, T/C [15] was 49.7%.
In the case of `CCN(c1cc(-c2ccc(CN3CCOCC3)cc2)cc(C(=O)NCc2c(C)cc(C)[nH]c2=O)c1C)C1CCOCC1`, the viability, T/C (compound 0.00949 µM) is reported as 98.8% and 104%, the viability, T/C (compound 0.03 µM) is reported as 116% and 109% and the viability, T/C (compound 0.0949 µM) is reported as 90.8% and 91.2%. The viability, T/C (compound 0.3 µM) was 103% and 98.9%, the viability, T/C (compound 0.949 µM) was 78.3% and 82.5% and the viability, T/C (compound 3 µM) was 73.6% and 71.4%. For the same compound, the IC50 (curve of compound) was > 3000 nM.
In the case of `Nc1ncn(C2CC(O)C(CO)O2)c(=O)n1` (stereo unspecified), the viability, T/C (compound 0.00316 µM) is reported as 96% and 88.2%, the viability, T/C (compound 0.01 µM) is reported as 86.6% and 105% and the viability, T/C (compound 0.0316 µM) is reported as 83.1% and 88.3%. For the same compound, the viability, T/C (compound 0.1 µM) was 86.9% and 93.3%, the viability, T/C (compound 0.316 µM) was 83% and 80.3% and the viability, T/C (compound 1 µM) was 86.7% and 89.8%. The IC50 (curve of compound) was > 1000 nM.
